Measurements published in patent publication US9328099B2, “Cyanomethylpyrazole carboxamides as janus kinase inhibitors” (Merck Sharp & Dohme Corp., priority 2011, dated 2016).
Read-outs that look alike come from different tables or passages of the source.

Legend:
[1] = target: JAK1 (Homo sapiens (Human), UniProt P23458); assay: Jak Biochemical HTRF Assay, JAK1; details: read-out: JAK1 IC50
From the text: (§1) Jak Biochemical HTRF Assay Protocol
(§2) Subsequent reagent additions employed an Agilent Bravo.

[2] = target: JAK2 (Homo sapiens (Human), UniProt O60674); assay: Jak Biochemical HTRF Assay, JAK2
From the text: as §1, §2

[3] = HTRF biochemical assay, GST-tagged catalytic domain, top concentration tested […]

Sequence of JAK2 (O60674 849-1124): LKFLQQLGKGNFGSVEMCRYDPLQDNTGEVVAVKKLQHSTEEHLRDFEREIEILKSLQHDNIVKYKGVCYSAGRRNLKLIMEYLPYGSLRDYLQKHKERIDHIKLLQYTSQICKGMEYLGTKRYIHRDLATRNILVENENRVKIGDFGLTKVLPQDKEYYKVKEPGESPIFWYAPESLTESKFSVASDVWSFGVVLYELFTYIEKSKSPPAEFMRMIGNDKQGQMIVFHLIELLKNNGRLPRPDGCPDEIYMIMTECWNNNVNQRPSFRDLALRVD
Sequence of JAK1 (P23458 875-1153): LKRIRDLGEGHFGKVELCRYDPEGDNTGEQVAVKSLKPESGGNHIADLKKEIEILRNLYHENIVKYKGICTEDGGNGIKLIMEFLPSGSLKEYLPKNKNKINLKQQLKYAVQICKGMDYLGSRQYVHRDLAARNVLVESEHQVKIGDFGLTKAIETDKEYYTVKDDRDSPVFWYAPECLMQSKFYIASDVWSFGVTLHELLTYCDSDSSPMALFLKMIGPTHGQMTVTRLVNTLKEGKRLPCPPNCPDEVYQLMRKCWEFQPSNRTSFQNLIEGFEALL

Row | SMILES | IC50 [1, 3] | IC50 [2, 3] | IC50 [1] | IC50 [2]
1 | Cc1ccc(N2CCC(CC#N)(n3cc(C(N)=O)c(Nc4ccc(F)cc4)n3)CC2)cn1 [Example 3-52, 1-[4-(cyanomethyl)-1-(6-methylpyridin-3-yl)piperidin-4-yl]-3-[(4-fluorophenyl)amino]-1H-pyrazole-4-carboxamide] | 0.4 nM | 8 nM |  | 
2 | Cc1ccc(Cl)cc1NC(=O)N1CC(CC#N)(n2cc(C(N)=O)c(Nc3ccccc3)n2)C1 [Example 38-17, 1-{1-[(5-chloro-2-methylphenyl)carbamoyl]-3-(cyanomethyl)azetidin-3-yl}-3-(phenylamino)-1H-pyrazole-4-carboxamide] | 11 nM | 149 nM |  | 
3 | CC1(COC(=O)N2CCC(CC#N)(n3cc(C(N)=O)c(Nc4ccc(F)cc4)n3)CC2)COC1 [Example 30-20, (3-methyloxetan-3-yl)methyl 4-{4-carbamoyl-3-[(4-fluorophenyl)amino]-1H-pyrazol-1-yl}-4-(cyanomethyl)piperidine-1-carboxylate] | 8 nM | 240 nM |  | 
4 | CN(c1ccccc1)C1CCC(CC#N)(n2cc(C(N)=O)c(Nc3ccnc(F)c3)n2)CC1 (stereo not drawn) [Example 40-15, Cis or trans 1-{1-(cyanomethyl)-4-[methyl(phenyl)amino]cyclohexyl}-3-[(2-fluoropyridin-4-yl)amino]-1H-pyrazole-4-carboxamide] | 0.08 nM | 2 nM |  | 
5 | COCCOC(=O)N1CC(CC#N)(n2cc(C(N)=O)c(Nc3ccccc3)n2)C1 [Example 30-59, 2-methoxyethyl 3-[4-carbamoyl-3-(phenylamino)-1H-pyrazol-1-yl]-3-(cyanomethyl)azetidine-1-carboxylate] | 15 nM | 336 nM |  | 
6 | N#CCC1(n2cc(C(N)=O)c(Nc3ccccc3)n2)CCN(C(=O)OC2CCOCC2)CC1 [Example 30-37, tetrahydro-2H-pyran-4-yl 4-[4-carbamoyl-3-(phenylamino)-1H-pyrazol-1-yl]-4-(cyanomethyl)piperidine-1-carboxylate] | 3 nM | 103 nM |  | 
7 | CS(=O)(=O)N1CC(CC#N)(n2cc(C(N)=O)c(Nc3ccccc3)n2)C1 [Example 37-16, 1-[3-(cyanomethyl)-1-(methylsulfonyl)azetidin-3-yl]-3-(phenylamino)-1H-pyrazole-4-carboxamide] | 79 nM | 366 nM |  | 
8 | N#CCC1(n2cc(C(N)=O)c(Nc3ccc(F)cc3)n2)CCN(c2ccc(OC(F)F)nc2)CC1 [Example 3-13, 1-{4-(cyanomethyl)-1-[6-(difluoromethoxy)pyridin-3-yl]piperidin-4-yl}-3-[(4-fluorophenyl)amino]-1H-pyrazole-4-carboxamide] | 0.7 nM | 21 nM |  | 
9 | N#CCC1(n2cc(C(N)=O)c(Nc3ccc(F)cc3)n2)CCN(C(=O)OCCC(F)(F)F)CC1 [Example 30-45, 3,3,3-Trifluoropropyl 4-{4-carbamoyl-3-[(4-fluorophenyl)amino]-1H-pyrazol-1-yl}-4-(cyanomethyl)piperidine-1-carboxylate] | 3 nM | 97 nM |  | 
10 | N#CC[C@]1(n2cc(C(N)=O)c(Nc3ccccc3)n2)CC[C@H](C(=O)NCC(F)(F)F)CC1 [Example 45-2, cis or trans 1-{1-(cyanomethyl)-4-[(2,2,2-trifluoroethyl)carbamoyl]cyclohexyl}-3-(phenylamino)-1H-pyrazole-4-carboxamide] |  |  | 378 nM | 1480 nM
11 | Cc1ccc(NC(=O)N2CC(CC#N)(n3cc(C(N)=O)c(Nc4ccccc4)n3)C2)cc1C [Example 38-4, 1-{3-(cyanomethyl)-1-[(3,4-dimethylphenyl)carbamoyl]azetidin-3-yl}-3-(phenylamino)-1H-pyrazole-4-carboxamide] | 12 nM | 191 nM |  | 
12 | N#CCC1(n2cc(C(N)=O)c(Nc3ccnc(F)c3)n2)CCC(NCc2ccccn2)CC1 (stereo not drawn) [Example 41-17, Cis or trans 1-{1-(cyanomethyl)-4-[(pyridin-2-ylmethyl)amino]cyclohexyl}-3-[(2-fluoropyridin-4-yl)amino]-1H-pyrazole-4-carboxamide] | 46 nM | 1390 nM |  | 
13 | N#CCC1(n2cc(C(N)=O)c(Nc3ccc(F)cc3)n2)CCC(N2CCC(O)CC2)CC1 (stereo not drawn) [Example 40-27, Cis or trans 1-[1-(cyanomethyl)-4-(4-hydroxypiperidin-1-yl)cyclohexyl]-3-[(4-fluorophenyl)amino]-1H-pyrazole-4-carboxamide] | 8 nM | 273 nM |  | 
14 | CC(C)(O)C1CC(CN2CCC(CC#N)(n3cc(C(N)=O)c(Nc4ccnc(F)c4)n3)CC2)C1 (stereo not drawn) [Example 22-24, 1-[4-(cyanomethyl)-1-{[3-(1-hydroxy-1-methylethyl)cyclobutyl]methyl}piperidin-4-yl]-3-[(2-fluoropyridin-4-yl)amino]-1H-pyrazole-4-carboxamide] | 100 nM | > 1500 nM |  | 
15 | COc1cccc(COC(=O)N2CC(CC#N)(n3cc(C(N)=O)c(Nc4ccccc4)n3)C2)c1 [Example 30-70, 3-methoxybenzyl 3-[4-carbarnoyl-3-(phenylamino)-1H-pyrazol-1-yl]-3-(cyanomethyl)azetidine-1-carboxylate] | 21 nM | 423 nM |  | 
16 | N#CCC1(n2cc(C(N)=O)c(Nc3ccccc3)n2)CCN(S(=O)(=O)c2ccco2)CC1 [Example 37-4, 1-[4-(cyanomethyl)-1-(furan-2-ylsulfonyl)piperidin-4-yl]-3-(phenylamino)-1H-pyrazole-4-carboxamide] | 0.6 nM | 2 nM |  | 
17 | CC(C)(C)OC(=O)N1CCC(CC#N)(n2cc(C(N)=O)c(Nc3ccc(C(=O)N4CCS(=O)(=O)CC4)cc3)n2)CC1 [Example 2-6, tert-butyl 4-[4-carbamoyl-3-({4-[(1,1-dioxidothiomorpholin-4-yl)carbonyl]phenyl}amino)-1H-pyrazol-1-yl]-4-(cyanomethyl)piperidine-1-carboxylate] | 0.5 nM | 1 nM |  | 
18 | N#CCC1(n2cc(C(N)=O)c(Nc3ccc(F)cc3)n2)CCN(Cc2ccnc3[nH]ccc23)CC1 [Example 22-53, 1-[4-(cyanomethyl)-1-(1H-pyrrolo[2,3-b]pyridin-4-ylmethyl)piperidin-4-yl]-3-[(4-fluorophenyl)amino]-1H-pyrazole-4-carboxamide] | 4 nM | 87 nM |  | 
19 | CC(C)(C(=O)N1CCC(CC#N)(n2cc(C(N)=O)c(Nc3ccnc(F)c3)n2)CC1)C(F)(F)F [Example 34-55, 1-[4-(cyanomethyl)-1-(3,3,3-trifluoro-2,2-dimethylpropanoyl)piperidin-4-yl]-3-[(2-fluoropyridin-4-yl)amino]-1H-pyrazole-4-carboxamide] | 1 nM | 28 nM |  | 
20 | CC(C)(C)OC(=O)N1CCC(CC#N)(n2cc(C(N)=O)c(Nc3ccc(F)cc3)n2)CC1 [Example 9-3, tert-butyl 4-{4-carbamoyl-3-[(4-fluorophenyl)amino]-1H-pyrazol-1-yl}-4-(cyanomethyl)piperidine-1-carboxylate] | 0.8 nM | 21 nM |  | 
21 | N#CCC1(n2cc(C(N)=O)c(Nc3ccnc(F)c3)n2)CCC(NCc2ccc(F)cc2)CC1 (stereo not drawn) [Example 41-25, Cis or trans 1-{1-(cyanomethyl)-4-[(4-fluorobenzyl)amino]cyclohexyl}-3-[(2-fluoropyridin-4-yl)amino]-1H-pyrazole-4-carboxamide] | 27 nM | 1080 nM |  | 
